In patent publication US20130303482A1, “Cylodextrin Complexation Methods for Formulating Peptide Proteasome Inhibitors” (ONYX THERAPEUTICS, INC., priority 2012, published 2013):
Converted amounts (≈) assume the structure as drawn.

Experiments:
[1] = Solubility of carfilzomib as a function of SBECD concentration, pH 1.5 and 3.5, 5° C. and 25° C. (Example 4); format: physicochemical; settings: SBECD solutions, citric acid 30 mM, pH 1.5 and 3.5, 5° C. vs 25° C., 24 hours
Description: The experiments at acidic conditions below the target pH values and titrated to pH 1.5 or 3.5 using aqueous sodium hydroside solution. Measurements of solubilized concentration were those from samples analyzed after 24 hours of time to equilibrate.

[2] = CDP (chlorohydrin degradation product) formation in lyophilized complexed carfilzomib vs pH, water and sodium chloride content, HPLC (Example 2); format: physicochemical
Description: A multivariate statistical design of experiments was conducted to assess factors controlling the level of chlorohydrin degradation product as a function of processing parameters and storage time over six months. The complexation was performed in the proportion and parameters given in Example 1, with the following modifications: (i) the complexation process was performed at 2 L batch size; (ii) the final pH of solution before vial filling was varied for purposes of the experiment from 3.0, to 4.0; (iii) sodium chloride was spiked into SBECD in some experiments to create a high sodium chloride condition; (iv) water content of the lyophilized final product in stoppered vials was produced at high and low sodium chloride conditions via early termination and stoppering of vials to create a higher residual water content condition.
The solution of complexed carfilzomib for injection bulk solution pre-lyophilization included aqueous 5 mg/mL carfilzomib, 250 mg/mL Captisol® (SBECD) and 4.86 mg/mL citric acid, pH adjusted with aqueous sodium hydroxide. Compounding of the bulk solutions for lyophilization followed the procedure detailed in Example 1 with the following manipulations to create solutions with different specific attributes: • 1. pH was adjusted to 3.0 and 4.0 • 2. Sodium chloride was spiked into the Captisol® to create a “High Chloride” condition Captisol® manufactured by Cydex, a subsidiary of Ligand, has a standard product analysis range for sodium chloride from 0.05% to 0.2% (w/v). […] 400 g of this Captisol® was required per batch for the process to be performed at 2 L scale batches of complexation processing (in same proportions and general parameters per Example 1). To create the “high chloride” condition, 0.6 g of NaCl was added to 399.4 g of Captisol® which thus mimicked what a batch containing 0.2% chloride Captisol® would be comprised of.
In order to generate two (2) moisture content conditions in the final lyophilized vials, two (2) sets of 61.8 mg/vial (of CFZ-API) samples were lyophilized. The first cycle generated the “dry” sample set of vials containing approximately 0.6% residual water per Example 1 lyophilization parameters. For the second sample set, lyophilization was terminated and vials stoppered earlier in the secondary drying phase to generate the “wet” condition vials, with residual moisture approximately 2.4% water per vial initially.
The bulk solution of complexed carfilzomib was analyzed during manufacture by High Performance Liquid Chromatography (HPLC) to accurately quantify the concentration of dissolved and complexed carfilzomib drug substance. Subsequently, additional water was added to accurately dilute the bulk complexed solution. After this dilution step, HPLC was used again to ensure a target concentration of 5.0 mg/mL was achieved. Samples of the three (3) final bulk solutions were analyzed for potency and purity confirmation testing by HPLC. […] Karl Fischer Coulometry method was used for the water content determination in the lyophilized drug product.

[3] = Slurry complexation / solubilization of CFZ-API in SBECD with citric acid (Example 1); format: physicochemical
Description: In a 525 L stainless steel jacketed cooled tank controlled to 2° C.-8° C., a suspension of 2.0 kg carfilzomib-API (CFZ-API), 246 kg water for injection (WFI), and 100 kg sulfobutylether beta-cyclodextrin (SBECD) was prepared. Specifically, in the 525 L stainless steel jacketed cooled tank controlled to 2° C.-8° C., 100 kg SBECD was dissolved in 246 kg WFI. The Carfilzomib suspension was then prepared using 2.0 kg of CFZ-API. Mixing was performed using an impeller mixer to maintain suspension of the CFZ-API solids and dissolve the SBECD. In the same vessel, a probe style rotor-stator high shear mixer (homogenizer) was used as well as the low shear impeller. The high shear mixer was operated for approximately 1 hour yielding an even suspension and reduction of particle size for any larger primary particles or agglomerated API. After a suspension was achieved, 1.96 kg of citric acid was added as a 16% aqueous solution. The pH of the solution was then lowered inducing partial solubilization of the CFZ-API followed by and complexation due to the presence of SBECD. Mixing was continued for a further 24 hours with both the impeller and the high shear mixer and a dissolved concentration of CFZ-API of greater than 5.1 mg/mL was achieved. The suspension containing greater than 5.1 mg/mL of dissolved complexed CFZ-API was filtered with a 0.45 micrometer clarifying filter, then accurately diluted to a dissolved concentration of 5.0 mg/mL and pH adjusted with 1 N sodium hydroxide solution to achieve pH 3.5. The solution was sterile filtered, with two sequential 0.22 micrometer sterilizing filters, then filled into vials 12.36 mL each, containing 61.8 mg per vial of CFZ-API. The vials were partially stoppered and loaded into a lyophilizer and freeze dried over 103 hours using a freezing temperature of −45° C., primary drying temperature of −15° C., and secondary drying of +30° C. The lyophilized vials were fully stoppered, and capped, then stored at the product stability temperature of 2° C.-8° C. for up to two years before use. […]

- difference in solubility between low and high temperature (FIG. 6) [1]: No significant differences in solubility
- solubility (physchem; pH 1, simulated gastric fluid): 1800 µg/mL (≈ 2500 µM)
- solubility (physchem; pH 3, aqueous buffer): 20 µg/mL (≈ 27.8 µM)
- solubility (physchem; pH 5, aqueous buffer): 2 µg/mL (≈ 2.78 µM)
- solubility (physchem; water): 2 µg/mL (≈ 2.78 µM)
- % Area of CDP after 6 months (HPLC data) ([2]; pH 3.00, water 0.7%, sodium chloride 0.05%, 5° C.): 0.00 % Area
- % Area of CDP after 6 months (HPLC data) ([2]; pH 3.00, water 0.7%, sodium chloride 0.05%, 25° C.): 0.14 % Area
- % Area of CDP after 6 months (HPLC data) ([2]; pH 3.00, water 0.7%, sodium chloride 0.2%, 5° C.): 0.13 % Area
- % Area of CDP after 6 months (HPLC data) ([2]; pH 3.00, water 0.7%, sodium chloride 0.2%, 25° C.): 0.70 % Area
- % Area of CDP after 6 months (HPLC data) ([2]; pH 3.00, water 2%, sodium chloride 0.05%, 5° C.): 0.02 % Area
- % Area of CDP after 6 months (HPLC data) ([2]; pH 3.00, water 2%, sodium chloride 0.05%, 25° C.): 0.55 % Area
- % Area of CDP after 6 months (HPLC data) ([2]; pH 3.00, water 2%, sodium chloride 0.2%, 5° C.): 0.28 % Area
- % Area of CDP after 6 months (HPLC data) ([2]; pH 3.00, water 2%, sodium chloride 0.2%, 25° C.): 2.57 % Area
- % Area of CDP after 6 months (HPLC data) ([2]; pH 4.00, water 0.7%, sodium chloride 0.05%, 5° C.): 0.00 % Area
- % Area of CDP after 6 months (HPLC data) ([2]; pH 4.00, water 0.7%, sodium chloride 0.05%, 25° C.): 0.09 % Area
- % Area of CDP after 6 months (HPLC data) ([2]; pH 4.00, water 0.7%, sodium chloride 0.2%, 5° C.): 0.08 % Area
- % Area of CDP after 6 months (HPLC data) ([2]; pH 4.00, water 0.7%, sodium chloride 0.2%, 25° C.): 0.36 % Area
- % Area of CDP after 6 months (HPLC data) ([2]; pH 4.00, water 2%, sodium chloride 0.05%, 5° C.): 0.02 % Area
- % Area of CDP after 6 months (HPLC data) ([2]; pH 4.00, water 2%, sodium chloride 0.05%, 25° C.): 0.35 % Area
- % Area of CDP after 6 months (HPLC data) ([2]; pH 4.00, water 2%, sodium chloride 0.2%, 5° C.): 0.18 % Area
- % Area of CDP after 6 months (HPLC data) ([2]; pH 4.00, water 2%, sodium chloride 0.2%, 25° C.): 1.71 % Area
- extent of solubilization vs API particle size (FIG. 2) ([3]; 24 hour complexation, mean API particle size 21.1 vs 7.5 micrometers): equivalent extent of solubilization
- dissolved concentration of CFZ-API ([3]; SBECD/WFI/citric acid slurry, 2° C.-8° C., 24 hours mixing): greater than 5.1 mg/mL
- effect of higher SBECD concentration on solubility (FIG. 3) ([3]; process of Example 1): increased the solubility
SMILES: CC(C)C[C@H](NC(=O)[C@H](CCc1ccccc1)NC(=O)CN1CCOCC1)C(=O)N[C@@H](Cc1ccccc1)C(=O)N[C@@H](CC(C)C)C(=O)[C@@]1(C)CO1 [carfilzomib]
